This is an account of results in patent US20220002772A1, “METHOD FOR PRODUCING ALLOLACTOSE” (priority 2019, published 2022).

The subject of experiment [1] is lac promoter on the pUC19 plasmid. The experiment in a line: Lac promoter inducibility by Blue-White screening method (JM109+pUC19 strain, X-Gal plates). It is filed as cell-based, E. coli JM109. Set-up: key to Blue coloration of formed colonies of JM109 + pUC19 strain: “x (cross)” indicates no blue coloration; “Δ (triangle)” indicates unclear blue coloration; “∘ (circle)” indicates clear blue coloration. Here is the method: The lac promoter inducibility of allolactose was evaluated by the Blue-White screening method using E. coli JM109 and pUC19 plasmid.
Competent cells of E. coli JM109 (Takara Bio) were transformed with pUC19 plasmid (Takara Bio), and cultured on LB agar medium containing 50 mg/L ampicillin at 37° C. overnight, to form colonies. The formed colonies were streaked on LB agar medium containing 50 mg/L ampicillin, and single colonies were obtained, to thereby obtain a strain JM109+pUC19. […] Beta-galactosidase activity of the strain JM109 is lost unless alpha-complementarity is exerted.
The reaction mixture containing 55.8 g/L of allolactose obtained in (4) above was subjected to heating at 95° C. for 10 minutes to inactivate the enzyme, and the supernatant was passed through a 0.22 μm pore size filter, to obtain an allolactose solution. The obtained allolactose solution was diluted according to the dilution factors listed in Table 4 and added to LB agar media, and X-Gal (Thermo Fisher Scientific) was further added, to prepare LB agar media for Blue-White screening containing various concentrations of allolactose and X-gal. X-gal is degraded by beta-galactosidase, and the degradation product thereof, 4-chloro-3-bromo-indigo, provides blue coloration.
The JM109+pUC19 strain was streaked on each LB agar medium for Blue-White screening and cultured at 37° C. overnight, and the coloration of single-isolated colonies was observed.

The subject of experiment [2] is lac promoter. The experiment in a line: Lac promoter inducibility in pET expression system (GH1-2 protein expression, SDS-PAGE, strain EcGHH6). It is filed as cell-based, E. coli Rosetta 2(DE3)pLysS. To be noted: liquid culture. Here is the method:
The lac promoter inducibility of allolactose was evaluated using the inducibility of pET expression system, which is commonly used for heterologous protein production, as an indicator. In the pET expression system, T7-polymerase, which is inducibly expressed from the lac promoter, highly expresses a gene downstream of the T7 promoter (e.g. a gene encoding a heterologous protein). As the heterologous protein to be produced, beta-galactosidase gene of a filamentous fungus Talaromyces cellulolyticus (hereinafter, also referred to as “gh1-2 gene”) was used.
RNA was prepared form cells of the T. cellulolyticus strain Y-94 (CBS 136886) by using RNeasy Plant Mini Kit (QIAGEN), and a full-length cDNA solution was prepared form the RNA solution by using SMARTer® RACE 5′/3′ kit. PCR was performed by using the cDNA solution as the template and primers of SEQ ID NOS: 13 and 14, to amplify a cDNA fragment of gh1-2 gene. Separately, PCR was performed by using a plasmid pET24a (Novagen) as the template and primers of SEQ ID NOS: 3 and 4, to amplify an outside fragment of the plasmid. The PCR products were each purified by using Wizard SV Gel and PCR Clean-Up System (Promega). In-Fusion HD Cloning Kit (Takara Bio) was used to ligate the purified PCR products. […]

Experiment [3] relates to lac promoter on the pUC19 plasmid. The experiment in a line: Lac promoter inducibility with DasherGFP reporter (JM109+pUC-DGFP-PtI strain). It is filed as cell-based, E. coli JM109. To be noted: allolactose at 0.0075 mM in LB agar medium, 37° C. overnight, UV illuminator. Here is the method:
It is assumed that since blue coloration of the degradation product of X-gal by beta-galactosidase (LacZ) was used as the evaluation index in the evaluation in (6) above, allolactose was degraded by beta-galactosidase (LacZ), which is the reporter gene, and as a result the lac promoter inducibility of allolactose was attenuated under conditions with allolactose concentrations of 0.0075 to 0.015 mM.
PCR was performed by using FPB-27-441 plasmid (Cosmo Bio) as the template and primers of SEQ ID NOS: 5 and 6, to amplify a gene fragment encoding DasherGFP. Separately, PCR was performed by using a plasmid pUC19 plasmid (Takara Bio) as the template and primers of SEQ ID NOS: 7 and 8, to amplify an outside fragment of the plasmid. The PCR products were each purified by using Wizard SV Gel and PCR Clean-Up System (Promega). In-Fusion HD Cloning Kit (Takara Bio) was used to ligate the purified PCR products. E. coli JM109 was transformed with the reaction product, and cultured on LB agar medium containing 50 mg/L ampicillin at 37° C. overnight, to form colonies, to thereby obtain a transformant. A plasmid pUC19-DGFP, in which LacZα gene has been replaced with DasherGFP gene, was obtained from the obtained transformant by using Wizard Plus Miniprep System (Promega). […]

The structures appear in SMILES notation.

On to `OC[C@H]1O[C@@H](OC[C@H]2OC(O)[C@H](O)[C@@H](O)[C@@H]2O)[C@H](O)[C@@H](O)[C@H]1O` (some centres unmarked) [allolactose], for which, in experiment [1] (allolactose concentrations of 0.0075 to 0.015 mM), the “Blue coloration of colonies (lac promoter inducibility)” value is recorded as “blue coloration was obscured”. Moreover, in experiment [1] (allolactose concentrations of 0.03 to 1.5 mM), the “Blue coloration of colonies, i.e. induction of gene expression from the lac promoter” value is “blue coloration of colonies was observed”. In addition, the “Blue coloration of formed colonies of JM109 + pUC19 strain” value in experiment [1] (final concentration of allolactose in plate media 0.0075 mM (dilution factor 21736)) is “Δ”; in experiment [1] (final concentration of allolactose in plate media 0.015 mM (dilution factor 10868)), “Δ”; in experiment [1] (final concentration of allolactose in plate media 0.03 mM (dilution factor 5434)), “∘”; in experiment [1] (final concentration of allolactose in plate media 0.075 mM (dilution factor 2174)), “∘”; in experiment [1] (final concentration of allolactose in plate media 0.15 mM (dilution factor 1087)), “∘”; in experiment [1] (final concentration of allolactose in plate media 0.3 mM (dilution factor 543)) it was “∘”. Besides, the “Blue coloration of formed colonies of JM109 + pUC19 strain” value in experiment [1] (final concentration of allolactose in plate media 1.5 mM (dilution factor 109)) was “∘”; in experiment [1] (final concentration of allolactose in plate media 3 mM (dilution factor 54)), “Δ”; in experiment [1] (final concentration of allolactose in plate media 15 mM (dilution factor 11)), “x”. Also, the “Expression level of heterologous protein (GH1-2)” value in experiment [2] (allolactose concentrations below 0.1 mM) is “decreased”. In addition, the “Expression of heterologous protein (GH1-2) compared with induction by 1 mM IPTG” value in experiment [2] (allolactose final concentration 0.1 mM, 13° C., 14 hours) is reported as “almost equally”. In addition, the “Fluorescent coloration of colonies (DasherGFP expression from lac promoter)” value in experiment [3] is on record as “fluorescent coloration of the colonies of the JM109+pUC-DGFP-PtI strain was observed”.
